Reference: patent EP0486958A1, “Physostigmine derivatives” (MEDIOLANUM FARMACEUTICI s.r.l., priority 1990, dated 1992)
Values joined by “and” are separate entries in the source; they are usually repeats but may differ in a detail not shown here. Equal values may be shown once. Read-outs that look alike come from different tables or passages of the source.

Columns and labels:
Acute toxicity (LD₅₀) = type: in vivo, Suiss female rats; details: rat, tartrates dissolved in water
Description: (§1) The LD₅₀ acute toxicity of the compounds obtained in Examples 2,3,4 and 6 has evaluated on Suiss female rats.
(§2) The compounds were administered per os and endovenously to different groups of animals in the form of tatrates dissolved in water. (The endovenous administration provides the highest bio-availability of the products). The results are shown in Table 3, together with the comparison ones obtained employing physostigmine.

[1] = target: T1, Electric Eel acetylcholinesterase, type V.S. (Electrophorus electricus, UniProt O42275); assay: Acetylcholinesterase inhibiting activity, test in vitro (Ellman method); type: biochemical; details: 20 min incubation, 25°C, phosphate buffer pH 8
T1 construct: purchased Sigma Chemicals type V.S
T1 sequence (O42275 24-633): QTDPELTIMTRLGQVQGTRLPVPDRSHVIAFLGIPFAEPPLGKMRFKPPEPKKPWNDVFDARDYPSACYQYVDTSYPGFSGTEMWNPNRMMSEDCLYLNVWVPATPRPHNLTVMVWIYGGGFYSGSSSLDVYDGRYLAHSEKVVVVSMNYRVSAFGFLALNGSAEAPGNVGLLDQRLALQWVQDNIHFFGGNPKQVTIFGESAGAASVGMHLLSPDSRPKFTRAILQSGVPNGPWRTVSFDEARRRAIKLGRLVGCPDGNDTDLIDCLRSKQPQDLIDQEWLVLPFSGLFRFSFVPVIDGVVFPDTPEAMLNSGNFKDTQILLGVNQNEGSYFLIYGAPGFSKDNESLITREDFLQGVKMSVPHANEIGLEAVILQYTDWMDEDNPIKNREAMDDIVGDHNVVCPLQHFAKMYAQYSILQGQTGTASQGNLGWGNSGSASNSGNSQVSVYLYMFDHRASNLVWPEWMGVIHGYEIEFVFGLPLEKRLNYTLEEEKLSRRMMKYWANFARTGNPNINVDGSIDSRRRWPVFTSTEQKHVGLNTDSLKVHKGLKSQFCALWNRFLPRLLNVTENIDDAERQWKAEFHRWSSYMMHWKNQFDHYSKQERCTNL
Description: The acetylcholinesterase activity was determined by the method of Ellman et al. (Ellman, G.L. Courtney, K.D. Andres, V., Featherstone, R.M. A new and rapide colorimetric determination of acetylcholinesterase activity - Biochem. Pharm., 1961, 7, 88).
The Electric Eel acetylcholinesterase, type V.S. of Sigma Chemicals was employed.
To determine IC₅₀, the incubation medium consisted of: Ellman reagent (5,5'-Dithiobis-2-nitrobenzoic acid) 100 µl; enzymatic solution (5,5 units/ml) 35 µl; variable concentration inhibitor 50 µl; phosphate buffer (0.1 mol/l; pH 8) 3000 µl. After 20 min. incubation, 20 µl acetylcholine (0.075 mol/l) are added, and the spectrophotomer, with kinetic software and thermostated at 25°C, was read for 3-5 min. At this point the reaction is in the stationary state. The concentrations of the products apt to inhibit by 50% (IC₅₀) the enzyme activity were calculated.

Suiss female rats = assay: Acute toxicity (LD₅₀); type: in vivo; details: for acute toxicity lower than the one of physostigmine: relative to physostigmine
Description: as §1, §2

[2] = target: T2, brain acetylcholinesterase (Rattus norvegicus, UniProt P37136); assay: Brain acetylcholinesterase activity after oral administration to rats (enzymatic dosage, Ellman method on isolated brains); type: in vivo, male CD/SD rats; details: 50 mg/kg by gastric probe as tartrates in water, vs control group, individual animals; for % Variation of acetylcholinesterase at time 10′: 10′ after treatment; for % Variation of acetylcholinesterase at time 60′: 60′ after treatment; for % Variation of acetylcholinesterase at time 120′: 120′ after treatment
T2 construct: from tissue; host or cells: brain of male CD/SD rats
T2 sequence (P37136 32-614): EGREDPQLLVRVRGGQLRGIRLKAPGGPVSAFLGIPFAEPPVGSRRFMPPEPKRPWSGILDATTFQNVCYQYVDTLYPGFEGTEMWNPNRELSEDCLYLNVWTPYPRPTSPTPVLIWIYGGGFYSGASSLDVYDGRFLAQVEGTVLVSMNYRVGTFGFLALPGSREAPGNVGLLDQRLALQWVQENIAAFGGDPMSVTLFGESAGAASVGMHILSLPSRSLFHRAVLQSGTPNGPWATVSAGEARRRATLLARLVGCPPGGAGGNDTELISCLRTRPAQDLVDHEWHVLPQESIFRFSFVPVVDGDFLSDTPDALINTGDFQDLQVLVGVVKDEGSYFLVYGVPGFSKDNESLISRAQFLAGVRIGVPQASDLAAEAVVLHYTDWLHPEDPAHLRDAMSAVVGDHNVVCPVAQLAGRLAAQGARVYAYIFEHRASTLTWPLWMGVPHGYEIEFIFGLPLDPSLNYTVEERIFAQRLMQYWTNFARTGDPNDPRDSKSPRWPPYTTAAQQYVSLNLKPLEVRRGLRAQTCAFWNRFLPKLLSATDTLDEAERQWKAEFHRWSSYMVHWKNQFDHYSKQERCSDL
Description: The effects of the compounds of Examples 2 and 3 on the brain acetylcholinesterase activity of male CD/SD rats evaluation were administered by gastric probe at the dose of 50 mg/kg in the form of tartrates dissolved in water. The rats were previously kept from eating for 18 hrs. One group of rats treated by or with physiological solution served as control. The rats were sacrificed by decapitation at various times after the treatment with the products under examination. On the isolated brains the acetylcholinesterase activity was determined by the Ellman et al. method employed in the "vitro" tests.
The percentage variation of the acetylcholinesterase activity in the brain of the rats treated by or with the brains of rats treated with physiological solution (control group) was calculated.

acetylcholinesterase = acetylcholinesterase (Homo sapiens, UniProt P22303); details: literature data; cited from earlier work
Sequence of acetylcholinesterase (P22303 32-614): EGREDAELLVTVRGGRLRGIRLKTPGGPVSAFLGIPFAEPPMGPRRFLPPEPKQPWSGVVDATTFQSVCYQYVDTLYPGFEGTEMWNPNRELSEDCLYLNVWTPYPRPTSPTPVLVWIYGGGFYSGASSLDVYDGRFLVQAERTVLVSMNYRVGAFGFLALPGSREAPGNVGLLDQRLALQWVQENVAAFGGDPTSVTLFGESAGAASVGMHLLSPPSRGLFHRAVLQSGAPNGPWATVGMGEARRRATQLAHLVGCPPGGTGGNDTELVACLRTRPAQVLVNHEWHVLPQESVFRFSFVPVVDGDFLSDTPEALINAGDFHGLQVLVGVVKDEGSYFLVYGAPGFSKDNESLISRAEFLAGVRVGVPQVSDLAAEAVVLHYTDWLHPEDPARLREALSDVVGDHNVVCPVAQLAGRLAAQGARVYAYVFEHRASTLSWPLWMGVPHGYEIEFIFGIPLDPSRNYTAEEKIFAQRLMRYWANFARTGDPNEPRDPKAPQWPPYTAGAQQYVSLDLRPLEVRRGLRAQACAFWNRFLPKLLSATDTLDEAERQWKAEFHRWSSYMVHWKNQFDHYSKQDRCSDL

[3] = water, iv, endovenous, read-out: LD₅₀ endovenous
[4] = water, po, oral (per os), read-out: LD₅₀ oral

Row | SMILES | IC50 [1] [µM] | LD₅₀ endovenous (Suiss female rats; tartrates dissolved in water) | LD50 (Acute toxicity (LD₅₀); [3]) [mg/kg] | LD50 (Acute toxicity (LD₅₀); [4]) [mg/kg] | % Variation of acetylcholinesterase at time 10′ [2] | % Variation of acetylcholinesterase at time 60′ [2] | % Variation of acetylcholinesterase at time 120′ [2] | acute toxicity lower than the one of physostigmine (Suiss female rats) | further results
1 | CNC(=O)Oc1ccc2c(c1)[C@]1(C)CCN(C)[C@@H]1N2C [Physostigmine] |  |  |  |  |  |  |  |  | LD50 (Acute toxicity (LD₅₀); female, Suiss, in vivo, intravenous, endovenous, read-out: LD₅₀ endovenous): 0.58 mg/kg; LD50 (Acute toxicity (LD₅₀); female, Suiss, in vivo, po, oral (per os), read-out: LD₅₀ oral): 2.2 mg/kg
2 | CCCN(C)C(=O)Oc1ccc2c(c1)[C@]1(C)CCN(C)[C@@H]1N2C (relative stereo) [Example 2, 1,2,3,3a,8,8a-hexaydro-1,3a,8-trimethylpyrrol(2,3-b)indol-5-ol(3aS-cis)-N-methyl,N-propylcarbamate (ester)] | 1.1 | >50 mg/kg and <100 mg/kg |  |  |  |  |  |  | LD₅₀ oral (Suiss female rats; oral (per os), tartrates dissolved in water): >100 mg/kg and <150 mg/kg
3 | CN(Cc1ccccc1)C(=O)Oc1ccc2c(c1)[C@]1(C)CCN(C)[C@@H]1N2C [Example 6, 1,2,3,3a,8,8a-hexahydro-1,3a,8-trimethylpyrrol.(2,3-b)indol-5-ol (3aS-cis) N-methyl,N-benzyl carbamate (ester)] | 1 |  | < 50 | ~70 |  |  |  |  | 
4 | CCCCCN(C)C(=O)Oc1ccc2c(c1)[C@]1(C)CCN(C)[C@@H]1N2C [Example 3, 1,2,3,3a,8,8a-hexahydro-1,3a,8-trimethylpyrrol(2,3-b)indol-5-ol(3aS-cis)-N-methyl,N-pentylcarbamate (ester)] | 1.9 | <100 mg/kg | > 50 | > 178 | -60,1% and -53,8% | -69,6% and -70,9% | -72,0% and -68,0% | approximately 100 times | 
5 | CCN(CC)C(=O)Oc1ccc2c(c1)C1(C)CCN(C)C1N2C (stereo not shown) [diethylphysostigmine] |  |  |  |  |  |  |  |  | acetylcholinesterase inhibiting activity (acetylcholinesterase): low inhibiting activity
6 | CCCCCCCN(C)C(=O)Oc1ccc2c(c1)[C@]1(C)CCN(C)[C@@H]1N2C [Example 4, 1,2,3,3a,8,8a-hexahydro-1,3a,8-trimethylpyrrol(2,3-b)indol-5-ol (3aS-cis) N-methyl,N-heptylcarbamate (ester)] | 3.5 | <100 mg/kg | > 50 | > 200 | 0% and 5,7% | -52,7% and -47,1% | -54,5% and -56,5% | approximately 100 times | 
